From patent US20050197350A1, “Novel quinoline, tetrahydroquinazoline, and pyrimidine derivatives and methods of treatment related to the use thereof” (TAISHO PHARMACEUTICAL CO., LTD., priority 2003, published 2005)

tested on: MCH receptors; experiment: MCH receptor activity class (method not given); conditions: class by percent of control at 10^-7 M or IC50

SMILES	class
CN(C)c1ccnc(N[C@H]2CC[C@@H](NC(=O)Cc3c[nH]c4ccc(OCc5ccccc5)cc34)CC2)n1 [compound 887]	3 (Class 3 The value of percent of control at 10^−7 M was more than 60% or the value of IC50 was more than 200 nM.)
CN(C)c1ccnc(N[C@H]2CC[C@@H](NC(=O)c3ccccc3C(=O)c3cccc4ccccc34)CC2)n1 [compound 888]	3 (Class 3 The value of percent of control at 10^−7 M was more than 60% or the value of IC50 was more than 200 nM.)
COc1ccc(C(=O)N[C@H]2CC[C@@H](Nc3nccc(N(C)C)n3)CC2)cc1OCc1ccccc1 [compound 889, 3-(benzyloxy)-N-(cis-4-{[4-(dimethylamino)pyrimidin-2-yl]amino}cyclohexyl)-4-methoxybenzamide]	1 (Class 1: The value of percent of control at 10^−7 M was less than 40% or the value of IC50 was less than 50 nM.)
Cc1c(C(=O)N[C@H]2CC[C@@H](Nc3nccc(N(C)C)n3)CC2)cc(-c2ccccc2)n1-c1ccccc1 [compound 890, N-(cis-4-{[4-(dimethylamino)pyrimidin-2-yl]amino}cyclohexyl)-2-methyl-1,5-diphenyl-1H-pyrrole-3-carboxamide]	1 (Class 1: The value of percent of control at 10^−7 M was less than 40% or the value of IC50 was less than 50 nM.)
Cc1c(C(=O)N[C@H]2CC[C@@H](Nc3nccc(N(C)C)n3)CC2)cc(-c2ccccc2)n1CCSCc1c(F)cccc1Cl [compound 891]	1 (Class 1: The value of percent of control at 10^−7 M was less than 40% or the value of IC50 was less than 50 nM.)
CN(C)c1ccnc(N[C@H]2CC[C@@H](NC(=O)c3c4ccccc4cc4ccccc34)CC2)n1 [compound 892]	3 (Class 3 The value of percent of control at 10^−7 M was more than 60% or the value of IC50 was more than 200 nM.)
CN(C)c1ccnc(N[C@H]2CC[C@@H](NC(=O)c3ccccc3Oc3ccccc3)CC2)n1 [compound 893, N-(cis-4-{[4-(dimethylamino)pyrimidin-2-yl]amino}cyclohexyl)-2-phenoxybenzamide]	2 (Class 2: The value of percent of control at 10^−7 M was from 40% to 60% or the value of IC′50 was from 50 nM to 200 nM.)
CN(C)c1ccnc(N[C@H]2CC[C@@H](NC(=O)c3ccccc3-c3ccccc3)CC2)n1 [compound 894]	3 (Class 3 The value of percent of control at 10^−7 M was more than 60% or the value of IC50 was more than 200 nM.)
CN(C)c1ccnc(N[C@H]2CC[C@@H](NC(=O)CC(c3ccccc3)c3ccccc3)CC2)n1 [compound 895]	3 (Class 3 The value of percent of control at 10^−7 M was more than 60% or the value of IC50 was more than 200 nM.)
CN(C)c1ccnc(N[C@H]2CC[C@@H](NC(=O)c3cc(-c4ccccc4)nc4ccccc34)CC2)n1 [compound 896, N-(cis-4-{[4-(dimethylamino)pyrimidin-2-yl]amino}cyclohexyl)-2-phenylquinoline-4-carboxamide]	2 (Class 2: The value of percent of control at 10^−7 M was from 40% to 60% or the value of IC′50 was from 50 nM to 200 nM.)
C[C@H](NC(=O)c1ccccc1C(=O)N[C@H]1CC[C@@H](Nc2nccc(N(C)C)n2)CC1)c1ccccc1 [compound 897]	3 (Class 3 The value of percent of control at 10^−7 M was more than 60% or the value of IC50 was more than 200 nM.)
Cc1ccc(C(=O)c2ccccc2C(=O)N[C@H]2CC[C@@H](Nc3nccc(N(C)C)n3)CC2)cc1 [compound 898]	3 (Class 3 The value of percent of control at 10^−7 M was more than 60% or the value of IC50 was more than 200 nM.)
CN(C)c1ccnc(N[C@H]2CC[C@@H](NC(=O)c3ccccc3COc3ccccc3)CC2)n1 [compound 899]	3 (Class 3 The value of percent of control at 10^−7 M was more than 60% or the value of IC50 was more than 200 nM.)
CN(C)c1ccnc(N[C@H]2CC[C@@H](NC(=O)Cc3sc(-c4ccccc4)nc3-c3ccc(Cl)cc3)CC2)n1 [compound 900, 2-[4-(4-chlorophenyl)-2-phenyl-1,3-thiazol-5-yl]-N-(cis-4-{[4-(dimethylamino)pyrimidin-2-yl]amino}cyclohexyl)acetamide]	1 (Class 1: The value of percent of control at 10^−7 M was less than 40% or the value of IC50 was less than 50 nM.)
Cc1ccc(S(=O)(=O)n2ccc(C(=O)N[C@H]3CC[C@@H](Nc4nccc(N(C)C)n4)CC3)c2)cc1 [compound 901, N-(cis-4-{[4-(dimethylamino)pyrimidin-2-yl]amino}cyclohexyl)-1-[(4-methylphenyl)sulfonyl]-1H-pyrrole-3-carboxamide]	2 (Class 2: The value of percent of control at 10^−7 M was from 40% to 60% or the value of IC′50 was from 50 nM to 200 nM.)
CN(C)c1ccnc(N[C@H]2CC[C@@H](NC(=O)c3ccc(-c4cccc([N+](=O)[O-])c4)o3)CC2)n1 [compound 902, N-(cis-4-{[4-(dimethylamino)pyrimidin-2-yl]amino}cyclohexyl)-5-(3-nitrophenyl)-2-furamide]	2 (Class 2: The value of percent of control at 10^−7 M was from 40% to 60% or the value of IC′50 was from 50 nM to 200 nM.)
CN(C)c1ccnc(N[C@H]2CC[C@@H](NC(=O)c3scc(S(C)(=O)=O)c3Cl)CC2)n1 [compound 903]	3 (Class 3 The value of percent of control at 10^−7 M was more than 60% or the value of IC50 was more than 200 nM.)

SMILES	class
CSc1sc(C(=O)N[C@H]2CC[C@@H](Nc3nccc(N(C)C)n3)CC2)c(Cl)c1S(=O)(=O)C(C)C [compound 904, 3-chloro-N-(cis-4-{[4-(dimethylamino)pyrimidin-2-yl]amino}cyclohexyl)-4-(isopropylsulfonyl)-5-(methylthio)thiophene-2-carboxamide]	2 (Class 2: The value of percent of control at 10^−7 M was from 40% to 60% or the value of IC′50 was from 50 nM to 200 nM.)
CSc1sc(C(=O)N[C@H]2CC[C@@H](Nc3nccc(N(C)C)n3)CC2)c(I)c1S(=O)(=O)C(C)C [compound 905]	2 (Class 2: The value of percent of control at 10^−7 M was from 40% to 60% or the value of IC′50 was from 50 nM to 200 nM.)
CN(C)c1ccnc(N[C@H]2CC[C@@H](NC(=O)c3csc([N+](=O)[O-])c3)CC2)n1 [compound 906, N-(cis-4-{[4-(dimethylamino)pyrimidin-2-yl]amino}cyclohexyl)-5-nitrothiophene-3-carboxamide]	1 (Class 1: The value of percent of control at 10^−7 M was less than 40% or the value of IC50 was less than 50 nM.)
CN(C)c1ccnc(N[C@H]2CC[C@@H](NC(=O)c3cc([N+](=O)[O-])cn3C)CC2)n1 [compound 907, N-(cis-4-{[4-(dimethylamino)pyrimidin-2-yl]amino}cyclohexyl)-1-methyl-4-nitro-1H-pyrrole-2-carboxamide]	1 (Class 1: The value of percent of control at 10^−7 M was less than 40% or the value of IC50 was less than 50 nM.)
CN(C)c1ccnc(N[C@H]2CC[C@@H](NC(=O)c3cn(S(=O)(=O)c4ccccc4)c4ccccc34)CC2)n1 [compound 908]	3 (Class 3 The value of percent of control at 10^−7 M was more than 60% or the value of IC50 was more than 200 nM.)
CN(C)c1ccnc(N[C@H]2CC[C@@H](NC(=O)c3ccc([N+](=O)[O-])cc3)CC2)n1 [compound 909, N-(cis-4-{[4-(dimethylamino)pyrimidin-2-yl]amino}cyclohexyl)-4-nitrobenzamide]	2 (Class 2: The value of percent of control at 10^−7 M was from 40% to 60% or the value of IC′50 was from 50 nM to 200 nM.)
COc1cc([N+](=O)[O-])ccc1C(=O)N[C@H]1CC[C@@H](Nc2nccc(N(C)C)n2)CC1 [compound 910]	3 (Class 3 The value of percent of control at 10^−7 M was more than 60% or the value of IC50 was more than 200 nM.)
CN(C)c1ccnc(N[C@H]2CC[C@@H](NC(=O)c3ccc(C(F)(F)F)c(F)c3)CC2)n1 [compound 911]	3 (Class 3 The value of percent of control at 10^−7 M was more than 60% or the value of IC50 was more than 200 nM.)
CN(C)c1ccnc(N[C@H]2CC[C@@H](NC(=O)c3ccc([N+](=O)[O-])cc3F)CC2)n1 [compound 912]	3 (Class 3 The value of percent of control at 10^−7 M was more than 60% or the value of IC50 was more than 200 nM.)
Cc1cc(C(=O)N[C@H]2CC[C@@H](Nc3nccc(N(C)C)n3)CC2)cc(C)c1[N+](=O)[O-] [compound 913, N-(cis-4-{[4-(dimethylamino)pyrimidin-2-yl]amino}cyclohexyl)-3,5-dimethyl-4-nitrobenzamide]	2 (Class 2: The value of percent of control at 10^−7 M was from 40% to 60% or the value of IC′50 was from 50 nM to 200 nM.)
Cc1cc(C)c(C(=O)C(=O)N[C@H]2CC[C@@H](Nc3nccc(N(C)C)n3)CC2)c(C)c1 [compound 914, N-(cis-4-{[4-(dimethylamino)pyrimidin-2-yl]amino}cyclohexyl)-2-mesityl-2-oxoacetamide]	2 (Class 2: The value of percent of control at 10^−7 M was from 40% to 60% or the value of IC′50 was from 50 nM to 200 nM.)
CN(C)c1ccnc(N[C@H]2CC[C@@H](NC(=O)c3cnc4ccccc4c3)CC2)n1 [compound 915]	3 (Class 3 The value of percent of control at 10^−7 M was more than 60% or the value of IC50 was more than 200 nM.)
CN(C)c1ccnc(N[C@H]2CC[C@@H](NC(=O)c3ccc4ncsc4c3)CC2)n1 [compound 918]	3 (Class 3 The value of percent of control at 10^−7 M was more than 60% or the value of IC50 was more than 200 nM.)
CN(C)c1ccnc(N[C@H]2CC[C@@H](NC(=O)c3cc(Cl)ccc3O)CC2)n1 [compound 919]	3 (Class 3 The value of percent of control at 10^−7 M was more than 60% or the value of IC50 was more than 200 nM.)
CSc1ccc(Cl)c(C(=O)N[C@H]2CC[C@@H](Nc3nccc(N(C)C)n3)CC2)c1 [compound 920]	3 (Class 3 The value of percent of control at 10^−7 M was more than 60% or the value of IC50 was more than 200 nM.)
COc1cccc2cc(C(=O)N[C@H]3CC[C@@H](Nc4nccc(N(C)C)n4)CC3)oc12 [compound 921]	3 (Class 3 The value of percent of control at 10^−7 M was more than 60% or the value of IC50 was more than 200 nM.)
Cc1cccc(C(=O)N[C@H]2CC[C@@H](Nc3nccc(N(C)C)n3)CC2)c1N [compound 922]	3 (Class 3 The value of percent of control at 10^−7 M was more than 60% or the value of IC50 was more than 200 nM.)
